# Source: patent publication US12581252B2, “Substituted pyrrolo[3,4-b]pyridines as PI3K-α inhibitors” (Relay Therapeutics, Inc., priority 2020, dated 2026)
# Molecular target: H1047R PIK3CA enzyme (Homo sapiens, UniProt P42336, H1047R)
# Assay: ADP-Glo Biochemical PIK3CA Kinase Assay
# Sequence of H1047R PIK3CA enzyme (P42336 whole entry H1047R): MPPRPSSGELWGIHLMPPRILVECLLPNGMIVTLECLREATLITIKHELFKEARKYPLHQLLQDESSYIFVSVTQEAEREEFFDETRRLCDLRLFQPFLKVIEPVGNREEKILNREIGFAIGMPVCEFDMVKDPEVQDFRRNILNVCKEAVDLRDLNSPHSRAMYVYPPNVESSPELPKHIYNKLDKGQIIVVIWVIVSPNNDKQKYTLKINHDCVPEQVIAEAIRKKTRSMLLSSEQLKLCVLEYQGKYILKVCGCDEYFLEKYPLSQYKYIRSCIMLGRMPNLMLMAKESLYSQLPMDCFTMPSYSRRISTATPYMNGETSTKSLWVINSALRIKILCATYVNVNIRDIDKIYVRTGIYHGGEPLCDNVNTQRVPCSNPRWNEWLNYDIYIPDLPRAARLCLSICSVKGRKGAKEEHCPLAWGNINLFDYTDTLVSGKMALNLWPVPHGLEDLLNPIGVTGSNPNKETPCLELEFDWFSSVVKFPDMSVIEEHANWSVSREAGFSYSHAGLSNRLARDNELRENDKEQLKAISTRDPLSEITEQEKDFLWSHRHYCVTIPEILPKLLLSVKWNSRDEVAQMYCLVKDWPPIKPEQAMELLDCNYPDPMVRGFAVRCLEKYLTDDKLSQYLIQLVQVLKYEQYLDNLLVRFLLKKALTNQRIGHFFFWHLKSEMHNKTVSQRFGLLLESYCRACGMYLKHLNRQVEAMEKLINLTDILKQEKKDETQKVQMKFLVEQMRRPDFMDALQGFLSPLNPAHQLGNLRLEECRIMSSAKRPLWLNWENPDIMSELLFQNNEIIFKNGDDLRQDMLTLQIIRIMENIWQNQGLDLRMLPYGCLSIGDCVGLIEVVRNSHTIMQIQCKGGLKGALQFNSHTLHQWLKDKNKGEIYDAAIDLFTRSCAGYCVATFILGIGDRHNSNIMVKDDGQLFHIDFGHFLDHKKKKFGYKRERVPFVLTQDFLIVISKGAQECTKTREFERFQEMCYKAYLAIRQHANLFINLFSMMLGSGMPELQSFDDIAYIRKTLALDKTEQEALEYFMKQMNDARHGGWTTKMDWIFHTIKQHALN
# Sequence of H1047R PIK3CA enzyme (P27986 whole entry partner): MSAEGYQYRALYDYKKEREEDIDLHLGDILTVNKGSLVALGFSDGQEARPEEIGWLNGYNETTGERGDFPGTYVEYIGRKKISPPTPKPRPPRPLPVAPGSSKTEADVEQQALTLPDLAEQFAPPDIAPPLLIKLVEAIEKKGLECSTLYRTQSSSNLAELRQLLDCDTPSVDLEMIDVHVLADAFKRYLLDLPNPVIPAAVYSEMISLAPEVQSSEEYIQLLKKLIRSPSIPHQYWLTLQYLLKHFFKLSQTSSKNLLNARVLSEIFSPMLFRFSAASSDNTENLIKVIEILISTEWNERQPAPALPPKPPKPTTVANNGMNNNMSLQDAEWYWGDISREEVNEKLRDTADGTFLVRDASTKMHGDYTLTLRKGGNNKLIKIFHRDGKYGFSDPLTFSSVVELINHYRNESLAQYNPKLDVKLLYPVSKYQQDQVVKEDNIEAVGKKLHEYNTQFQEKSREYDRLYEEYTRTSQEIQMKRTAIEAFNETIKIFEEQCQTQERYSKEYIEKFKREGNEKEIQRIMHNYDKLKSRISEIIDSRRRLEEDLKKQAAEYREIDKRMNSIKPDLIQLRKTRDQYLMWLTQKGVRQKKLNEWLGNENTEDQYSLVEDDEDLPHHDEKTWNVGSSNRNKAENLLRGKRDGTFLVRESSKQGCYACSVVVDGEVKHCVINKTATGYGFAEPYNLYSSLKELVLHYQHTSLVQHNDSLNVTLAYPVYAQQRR
row,SMILES,IC50
1,"O=C(Nc1cc(-c2cnn(-c3ncccn3)c2)cc2c1C(c1cc(F)ccc1Cl)NC2=O)c1cc(F)cc(C(F)(F)F)c1 (single isomer, unassigned) [Compound I-1554]",1 to 10 µM
2,CC(C)N1C[C@H](O)C[C@H]1C(=O)Nc1cccc2c1C(c1cc(F)ccc1Cl)NC2=O (mixture of isomers) [Compound I-2392],10 to 100 µM
3,Cc1ccccc1C1NC(=O)c2cccc(NC(=O)c3nc(C)c4c(F)cc(F)cn34)c21 (stereo not shown) [Compound I-342],10 to 100 µM
4,Cc1ccccc1C1NC(=O)c2cccc(NC(=O)c3cc(F)cc4c(C(=O)C(F)(F)F)c[nH]c34)c21 (stereo not shown) [Compound I-408],10 to 100 µM
5,N#Cc1c(-c2cc(NC(=O)c3cc(F)cc(Cl)c3)c3c(c2)C(=O)N[C@@H]3c2cc(F)ccc2Cl)ccc2ncnn12 [Compound I-2064],≤ 0.1 µM
6,O=C(Nc1cc(Br)cc2c1C(c1cc(F)ccc1Cl)NC2=O)c1ccccc1F (stereo not shown) [Compound I-466],10 to 100 µM
7,O=C1N[C@H](c2cc(F)ccc2Cl)c2c(NC(=O)N3C[C@](O)(CO)c4ccccc43)cccc21 [Compound I-2168],10 to 100 µM
8,O=C(Nc1cc(Br)cc2c1C(c1cc(F)ccc1Cl)NC2=O)c1ccccc1OC(F)(F)F (stereo not shown) [Compound I-571],1 to 10 µM
9,"O=C1N[C@@H](c2cc(F)ccc2Cl)c2c(NC(=O)N3C[C@@](O)(C(F)(F)F)c4cc(F)ccc43)cc(-n3nccn3)cc21 (single isomer, unassigned) [Compound I-2571]",1 to 10 µM
10,O=C1NC(c2cc(F)ccc2Cl)c2c(Nc3nn(CCO)c4ccccc34)cc(-c3ccc4ncnn4c3)cc21 (stereo not shown) [Compound I-1807],1 to 10 µM
11,O=C1NC(c2cc(F)ccc2Cl)c2c(Nc3cn4ccccc4n3)cc(-c3ccc4ncnn4c3)cc21 (stereo not shown) [Compound I-1668],1 to 10 µM
12,"O=C1N[C@@H](c2cc(F)ccc2Cl)c2c(NC(=O)[C@H]3C[C@H](O)C[C@@H](C(F)(F)F)C3)cccc21 (single isomer, unassigned) [Compound I-2177]",1 to 10 µM
13,O=C1N[C@@H](c2cc(F)ccc2Cl)c2c(NC(=O)[C@@H]3CC[C@H](C(F)(F)F)C3)cccc21 [Compound I-2086],1 to 10 µM
14,O=C1NC(c2cc(F)ccc2Cl)c2c1cccc2-n1ccc2ccccc2c1=O (stereo not shown) [Compound I-1590],10 to 100 µM
15,C[C@@H](CCC(F)(F)F)C(=O)Nc1cccc2c1[C@@H](c1cc(F)ccc1Cl)NC2=O [Compound I-2141],10 to 100 µM
16,O=C1NC(c2cc(F)ccc2Cl)c2c(NC(=O)N3CCOCC3)cc(Br)cc21 (stereo not shown) [Compound I-576],10 to 100 µM
17,O=C1NC(c2cc(F)ccc2Cl)c2c(NC(=O)C(O)c3ccccc3)cc(-c3ccc4ncnn4c3)cc21 (stereo not shown) [Compound I-1724],10 to 100 µM
18,COc1cc(C)c(C(=O)Nc2cccc3c2C(c2ccccc2C)NC3=O)cn1 (stereo not shown) [Compound I-501],10 to 100 µM
19,O=C1NC(c2cc(F)ccc2Cl)c2c(NC(=O)N3CCCCC3)cc(-c3ccc4ncnn4c3)cc21 (stereo not shown) [Compound I-1663],1 to 10 µM
20,O=C(Nc1cccc2c1C(CN1CCCCC1)NC2=O)c1cc(F)cc(C(F)(F)F)c1 (stereo not shown) [Compound I-1678],10 to 100 µM
21,Cn1ncc(Br)c1C(=O)Nc1cccc2c1C(c1cc(F)ccc1Cl)NC2=O (stereo not shown) [Compound I-583],10 to 100 µM
22,"CC(C)(CN)n1cc(-c2cc(NC(=O)N3C[C@](O)(C(F)(F)F)c4cc(F)ccc43)c3c(c2)C(=O)N[C@H]3c2cc(F)ccc2Cl)cn1 (single isomer, unassigned) [Compound I-2652]",1 to 10 µM
23,O=C1NC(c2cc(F)ccc2Cl)c2c(NC(=O)c3csc4cocc34)cccc21 (stereo not shown) [Compound I-2301],10 to 100 µM
24,"[2H][C@]1(c2cc(F)ccc2Cl)NC(=O)c2cccc(NC(=O)N3C[C@@](O)(C(F)(F)F)c4cc(F)ccc43)c21 (single isomer, unassigned) [Compound I-2683]",1 to 10 µM
25,O=C1NC(c2cc(F)ccc2Cl)c2c(NC(=O)C3CCOCC3)cc(-c3ccc4ncnn4c3)cc21 (stereo not shown) [Compound I-1821],10 to 100 µM
26,O=C(Nc1cccc2c1C(c1cccc3c1NCC3)NC2=O)c1cc(F)cc(C(F)(F)F)c1 (stereo not shown) [Compound I-660],10 to 100 µM
27,"O=C1N[C@@H](c2cc(F)ccc2Cl)c2c(NC(=O)[C@H]3CC(C(F)(F)F)C[C@@H](O)C3)cc(Br)cc21 (single isomer, unassigned) [Compound I-2275]",10 to 100 µM
28,O=C(Nc1cccc2c1C(c1ccccc1C1COC1)NC2=O)c1cc(F)cc(C(F)(F)F)c1 (stereo not shown) [Compound I-907],10 to 100 µM
29,CS(=O)(=O)c1cc(-c2ccc3ncnn3c2)cc2c1C(c1cc(F)ccc1Cl)NC2=O (stereo not shown) [Compound I-1941],10 to 100 µM

# Now from value to compound:
row,IC50,SMILES
1,0.1 to 0.5 µM,O=C(Nc1cc(Br)cc2c1C(c1cc(F)ccc1Cl)NC2=O)NC12CC3CC(C1)CC(C(F)(F)F)(C3)C2 (stereo not shown) [Compound I-1256]
2,≤ 0.1 µM,O=C(Nc1cc(NCC2(O)CC2)cc2c1C(c1cc(F)ccc1Cl)NC2=O)c1cc(F)cc(C(F)(F)F)c1 (stereo not shown) [Compound I-1181]
3,1 to 10 µM,N#CCn1nc(Nc2cc(-c3ccc4ncnn4c3)cc3c2C(c2cc(F)ccc2Cl)NC3=O)c2ccccc21 (stereo not shown) [Compound I-1808]
4,1 to 10 µM,"O=C1N[C@@H](c2cc(F)ccc2Cl)c2c(NC(=O)N3C[C@@](O)(C(F)F)c4cc(F)ccc43)cccc21 (single isomer, unassigned) [Compound I-2555]"
5,≤ 0.1 µM,O=C(O)Cc1ccncc1-c1cc(NC(=O)c2cc(F)cc(C(F)(F)F)c2)c2c(c1)C(=O)NC2c1cc(F)ccc1Cl (stereo not shown) [Compound I-1220]
6,1 to 10 µM,O=C(Nc1cc(-c2ccncc2F)cc2c1[C@H](c1cc(F)ccc1Cl)NC2=O)c1cc(F)cc(C(F)(F)F)c1 (stereo in doubt) [Compound I-987]
7,1 to 10 µM,O=C1NC(c2cc(F)ccc2Cl)c2c(NC(=O)N3CCC(C(F)(F)F)CC3)cc(Br)cc21 (stereo not shown) [Compound I-430]
8,1 to 10 µM,O=C(Nc1cc(Br)cc2c1[C@@H](c1cc(F)ccc1Cl)NC2=O)c1cc(F)cc(C(F)(F)F)c1 [Compound I-387]
9,1 to 10 µM,"N#Cc1cc(NC(=O)N2C[C@@](O)(C(F)(F)F)c3cc(F)ccc32)c2c(c1)C(=O)N[C@H]2c1cc(F)ccc1Cl (single isomer, unassigned) [Compound I-2559]"
10,1 to 10 µM,O=C(CC1CCCCC1)Nc1cc(-c2ccc3ncnn3c2)cc2c1C(c1cc(F)ccc1Cl)NC2=O (stereo not shown) [Compound I-1627]
11,0.1 to 0.5 µM,O=C(Nc1cc(C(O)COCCO)cc2c1C(c1cc(F)ccc1Cl)NC2=O)c1cc(F)cc(C(F)(F)F)c1 (stereo not shown) [Compound I-1134]
12,1 to 10 µM,NS(=O)(=O)Cc1cc(NC(=O)c2cc(F)cc(C(F)(F)F)c2)c2c(c1)C(=O)N[C@@H]2c1cc(F)ccc1Cl [Compound I-1479]
13,≤ 0.1 µM,O=C(Nc1cc(-c2ccc(=O)n(C(F)F)c2)cc2c1[C@H](c1cc(F)ccc1Cl)NC2=O)c1cc(F)cc(C(F)(F)F)c1 [Compound I-1861]
14,≤ 0.1 µM,CC(C)(O)c1cc(NC(=O)c2nsc3ccccc23)c2c(n1)C(=O)NC2c1ccccc1Cl (stereo not shown) [Compound I-250]
15,≤ 0.1 µM,O=C(Nc1cc(-c2cn(C(F)F)cn2)cc2c1[C@H](c1cc(F)ccc1Cl)NC2=O)c1cc(F)cc(C(F)(F)F)c1 [Compound I-1919]
16,1 to 10 µM,"CN1C(=O)CC[C@H]1COc1cc(NC(=O)c2cc(F)cc(C(F)(F)F)c2)c2c(c1)C(=O)N[C@@H]2c1cc(F)ccc1Cl (single isomer, unassigned) [Compound I-1568]"
17,≤ 0.1 µM,"Cc1ccccc1C1NC(=O)c2cc(CCO)cc(NC(=O)c3csc4ccccc34)c21 (stereo not shown) [Compound I-181, N-[6-(2-Hydroxyethyl)-3-(2-methylphenyl)-1-oxo-2,3-dihydro-1H-isoindol-4-yl]-1-benzothiophene-3-carboxamide]"
18,1 to 10 µM,"O=C1N[C@H](c2cc(F)ccc2Cl)c2c(NC(=O)N3C[C@@H](O)c4cc(F)ccc43)cc(-n3ccccc3=O)cc21 (single isomer, unassigned) [Compound I-2352]"

row,IC50,SMILES
1,≤ 0.1 µM,O=C(Nc1cccc2c1[C@H](c1cc(F)ccc1C(F)F)NC2=O)c1cc(F)cc(C(F)(F)F)c1 [Compound I-170]
2,0.1 to 0.5 µM,O=C(Nc1cc(Br)cc2c1C(c1cc(F)ccc1Cl)NC2=O)c1cccc(C(F)(F)F)c1 (stereo not shown) [Compound I-801]
3,0.5 to 1 µM,Cc1ccccc1C1NC(=O)c2cccc(NC(=O)c3cc(F)cc(Br)c3)c21 (stereo not shown) [Compound I-391]
4,0.5 to 1 µM,Cc1ccccc1C1NC(=O)c2cccc(NC(=O)c3cc(F)cc(OC(F)(F)F)c3)c21 (stereo not shown) [Compound I-318]
5,0.1 to 0.5 µM,COc1cc(C(=O)Nc2cc(Br)cc3c2C(c2cc(F)ccc2Cl)NC3=O)cc(Cl)c1F (stereo not shown) [Compound I-991]
6,≤ 0.1 µM,O=C(Nc1cc(-c2cnc(OC3CC3)nc2)cc2c1C(c1cc(F)ccc1Cl)NC2=O)c1cc(F)cc(C(F)(F)F)c1 (stereo not shown) [Compound I-1492]
7,≤ 0.1 µM,O=C1NC(c2cc(F)ccc2Cl)c2c(Nc3n[nH]c4c(C(F)(F)F)cc(F)cc34)cc(-c3ccc4ncnn4c3)cc21 (stereo not shown) [Compound I-2049]
8,0.5 to 1 µM,Cc1ccccc1C1NC(=O)c2nccc(NC(=O)N3CCc4c(F)cc(F)cc43)c21 (stereo not shown) [Compound I-148]
9,≤ 0.1 µM,O=C1NC(c2cc(F)ccc2Cl)c2c(NC(=O)n3ccc4ccccc43)cc(Br)cc21 (stereo not shown) [Compound I-1318]
10,≤ 0.1 µM,Nc1ccc(COc2cc(NC(=O)c3cc(F)cc(C(F)(F)F)c3)c3c(c2)C(=O)NC3c2cc(F)ccc2Cl)cn1 (stereo not shown) [Compound I-1736]
11,≤ 0.1 µM,O=C(Nc1cc(-c2cnn(-c3cscn3)c2)cc2c1C(c1cc(F)ccc1Cl)NC2=O)c1cc(F)cc(C(F)(F)F)c1 (stereo not shown) [Compound I-1571]
12,≤ 0.1 µM,O=C(Nc1cc(C#Cc2ccccn2)cc2c1C(c1cc(F)ccc1Cl)NC2=O)c1cc(F)cc(C(F)(F)F)c1 (stereo not shown) [Compound I-1185]
13,≤ 0.1 µM,Cc1ccccc1C1NC(=O)c2c(CN)ccc(NC(=O)c3csc4ccccc34)c21 (stereo not shown) [Compound I-140]
14,0.1 to 0.5 µM,Cc1nn(C)cc1-c1cc(NC(=O)c2cc(F)cc(Cl)c2)c2c(n1)C(=O)NC2c1cc(F)ccc1Cl (stereo not shown) [Compound I-380]
15,0.5 to 1 µM,O=C1NC(c2cc(F)ccc2Cl)c2c(Nc3ncc(C(F)(F)F)cc3F)cc(Br)cc21 (stereo not shown) [Compound I-1118]
16,0.1 to 0.5 µM,"O=C1N[C@@H](c2cc(F)ccc2Cl)c2c(NC(=O)N3C[C@@H](O)c4cc(F)ccc43)cc(-n3ccccc3=O)cc21 (single isomer, unassigned) [Compound I-2351]"
17,≤ 0.1 µM,O=C1COC(c2cc(NC(=O)c3cc(F)cc(C(F)(F)F)c3)c3c(c2)C(=O)NC3c2cc(F)ccc2Cl)CN1 (stereo not shown) [Compound I-1308]
